# Assay results taken from patent US20240228504A1, “SUBSTITUTED TRICYCLIC AMIDES, ANALOGUES THEREOF, AND METHODS USING SAME” (Arbutus Biopharma Corporation, priority 2020, published 2024).
# Test system: HBV rcDNA in HepDE19 cells
# Assay: HepDE19 assay with bDNA quantitation of HBV rcDNA
# Format: cell-based, hepatitis B virus
# Settings: HepDE19 assay, inhibition of rcDNA formation, bDNA quantitation; read-out: DE-19bDNA EC50
row,SMILES,EC50 [nM]
1,"CNc1nc2c(c3cc(F)c(F)cc13)C(N(C)C(=O)c1cc3cc(F)c(F)cc3[nH]1)COC2 (single isomer, unassigned) [Compound 334, N-(8,9-Difluoro-6-(methylamino)-1,4-dihydro-2H-pyrano[3,4-c]isoquinolin-1-yl)-5,6-difluoro-N-methyl-1H-indole-2-carboxamide]",10
2,"CN(C(=O)c1ccc2cn[nH]c2c1)C1CNCc2[nH]c(=O)c3cc(F)c(F)cc3c21 (single isomer, unassigned) [Compound 496, N-(8,9-difluoro-6-oxo-1,2,3,4,5,6-hexahydrobenzo[c][1,7]naphthyridin-1-yl)-N-methyl-1H-indazole-6-carboxamide]",4200
3,"Cc1cccc2[nH]c(C(=O)N(C)C3CNCc4[nH]c(=O)c5cc(F)c(F)cc5c43)cc12 (single isomer, unassigned) [Compound 456, N-(8,9-difluoro-6-oxo-1,2,3,4,5,6-hexahydrobenzo[c][1,7]naphthyridin-1-yl)-N,4-dimethyl-1H-indole-2-carboxamide]",2200
4,"CN(C(=O)c1cc2sc(F)cc2[nH]1)C1CNCc2[nH]c(=O)c3cc(F)c(F)cc3c21 (single isomer, unassigned) [Compound 500, N-(8,9-difluoro-6-oxo-1,2,3,4,5,6-hexahydrobenzo[c][1,7]naphthyridin-1-yl)-2-fluoro-N-methyl-4H-thieno[3,2-b]pyrrole-5-carboxamide]",30
5,"CN(C(=O)c1ccc2scnc2c1)C1COCc2[nH]c(=O)c3cc(F)ccc3c21 (single isomer, unassigned) [Compound 444, N-(8-fluoro-6-oxo-1,4,5,6-tetrahydro-2H-pyrano[3,4-c]isoquinolin-1-yl)-N-methylbenzo[d]thiazole-5-carboxamide]",12200
6,"CN(C(=O)c1cc2cc(C#N)ccc2[nH]1)C1COCc2[nH]c(=O)c3cc(F)ccc3c21 (single isomer, unassigned) [Compound 397, 5-Cyano-N-(8-fluoro-6-oxo-1,4,5,6-tetrahydro-2H-pyrano[3,4-c]isoquinolin-1-yl)-N-methyl-1H-indole-2-carboxamide]",17000
7,"CN(C(=O)c1cc2cccc(F)c2[nH]1)C1COCc2[nH]c(=O)c3cc(F)ccc3c21 (single isomer, unassigned) [Compound 33, 7-Fluoro-N-(8-fluoro-6-oxo-1,4,5,6-tetrahydro-2H-pyrano[3,4-c]isoquinolin-1-yl)-N-methyl-1H-indole-2-carboxamide]",1800
8,"CN(C(=O)c1cc2sc(F)cc2[nH]1)C1COCc2[nH]c(=O)c3cc(F)ccc3c21 (single isomer, unassigned) [Compound 498, 2-fluoro-N-(8-fluoro-6-oxo-1,4,5,6-tetrahydro-2H-pyrano[3,4-c]isoquinolin-1-yl)-N-methyl-4H-thieno[3,2-b]pyrrole-5-carboxamide]",80
9,"CN(C(=O)c1cc2ccccc2[nH]1)C1COCc2[nH]c(=O)c3cc(F)ccc3c21 (single isomer, unassigned) [Compound 2, N-(8-Fluoro-6-oxo-1,4,5,6-tetrahydro-2H-pyrano[3,4-c]isoquinolin-1-yl)-N-methyl-1H-indole-2-carboxamide]",20
10,"CN(C(=O)c1cc2ccccc2[nH]1)C1CCCc2[nH]c(=O)c3cc(F)c(F)cc3c21 (single isomer, unassigned) [Compound 467, N-(8,9-Difluoro-6-oxo-1,2,3,4,5,6-hexahydrophenanthridin-1-yl)-N-methyl-1H-indole-2-carboxamide]",10
11,"CN(C(=O)C1Cc2cc(F)ccc2N1)C1COCc2[nH]c(=O)c3cc(F)c(F)cc3c21 (single isomer, unassigned) [Compound 5, N-(8,9-Difluoro-6-oxo-1,4,5,6-tetrahydro-2H-pyrano[3,4-c]isoquinolin-1-yl)-5-fluoro-N-methylindoline-2-carboxamide]",20

# Same assay, conditions: Hepatitis B virus, HepDE19, HepDE19 assay, inhibition of rcDNA formation, bDNA quantitation; read-out: DE-19bDNA EC50
row,SMILES,EC50 [nM]
1,"CN(C(=O)[C@@H](O)c1ccccc1)[C@@H]1COCc2[nH]c(=O)c3cc(F)c(F)cc3c21 [Compound 95, (S)-N-((S)-8,9-Difluoro-6-oxo-1,4,5,6-tetrahydro-2H-pyrano[3,4-c]isoquinolin-1-yl)-2-hydroxy-N-methyl-2-phenylacetamide]",24000
2,"CN(C(=O)c1cnn(C(C)(C)C)c1)[C@@H]1COCc2[nH]c(=O)c3cc(F)c(F)cc3c21 [Compound 196, (S)-1-(tert-Butyl)-N-(8,9-difluoro-6-oxo-1,4,5,6-tetrahydro-2H-pyrano[3,4-c]isoquinolin-1-yl)-N-methyl-1H-pyrazole-4-carboxamide]",3100
3,"CN(C(=O)c1cc2ccsc2[nH]1)[C@@H]1COCc2[nH]c(=O)c3cc(F)c(F)cc3c21 [Compound 294, (S)-N-(8,9-Difluoro-6-oxo-1,4,5,6-tetrahydro-2H-pyrano[3,4-c]isoquinolin-1-yl)-N-methyl-6H-thieno[2,3-b]pyrrole-5-carboxamide]",50
4,"CN(C(=O)C1(O)Cc2cc(F)c(F)cc2C1)[C@@H]1COCc2[nH]c(=O)c3cc(F)c(F)cc3c21 [Compound 276, (S)-N-(8,9-Difluoro-6-oxo-1,4,5,6-tetrahydro-2H-pyrano[3,4-c]isoquinolin-1-yl)-5,6-difluoro-2-hydroxy-N-methyl-2,3-dihydro-1H-indene-2-carboxamide]",1950
5,"CN(C(=O)c1cccc(-c2cccc(F)c2)c1)C1CNCc2[nH]c(=O)c3cc(F)c(F)cc3c21 (single isomer, unassigned) [Compound 304, N-(8,9-Difluoro-6-oxo-1,2,3,4,5,6-hexahydrobenzo[c][1,7]naphthyridin-1-yl)-3′-fluoro-N-methyl-[1,1′-biphenyl]-3-carboxamide]",20000
6,"CN(C(=O)c1cc2c(C(F)F)cc(F)cc2[nH]1)[C@@H]1COCc2[nH]c(=O)c3cc(F)c(F)cc3c21 [Compound 230, (S)-N-(8,9-Difluoro-6-oxo-1,4,5,6-tetrahydro-2H-pyrano[3,4-c]isoquinolin-1-yl)-4-(difluoromethyl)-6-fluoro-N-methyl-1H-indole-2-carboxamide]",10
7,"CN(C(=O)c1cc2cc(Br)ncc2[nH]1)[C@@H]1COCc2[nH]c(=O)c3cc(F)c(F)cc3c21 [Compound 213, (S)-5-Bromo-N-(8,9-difluoro-6-oxo-1,4,5,6-tetrahydro-2H-pyrano[3,4-c]isoquinolin-1-yl)-N-methyl-1H-pyrrolo[2,3-c]pyridine-2-carboxamide]",80
8,"CN(C(=O)c1cc2oc(Cl)cc2[nH]1)[C@@H]1COCc2[nH]c(=O)c3cc(F)c(F)cc3c21 [Compound 332, (S)-2-Chloro-N-(8,9-difluoro-6-oxo-1,4,5,6-tetrahydro-2H-pyrano[3,4-c]isoquinolin-1-yl)-N-methyl-4H-furo[3,2-b]pyrrole-5-carboxamide]",40
9,"CN(C(=O)c1cc2c(Cl)cc(F)cc2[nH]1)[C@@H]1COCc2[nH]c(=O)c3cc(F)c(F)cc3c21 [Compound 343, (S)-4-Chloro-N-(8,9-difluoro-6-oxo-1,4,5,6-tetrahydro-2H-pyrano[3,4-c]isoquinolin-1-yl)-6-fluoro-N-methyl-1H-indole-2-carboxamide]",10
10,"CN(C(=O)c1cc2cc(F)c(F)cc2[nH]1)[C@@H]1COC(O)c2[nH]c(=O)c3cc(F)c(F)cc3c21 (stereo partly drawn) [Compound 187, N-((1S)-8,9-Difluoro-4-hydroxy-6-oxo-1,4,5,6-tetrahydro-2H-pyrano[3,4-c]isoquinolin-1-yl)-5,6-difluoro-N-methyl-1H-indole-2-carboxamide]",10
11,"CN(C(=O)c1cnc(C(F)(F)F)c(Cl)c1)[C@@H]1COCc2[nH]c(=O)c3cc(F)ccc3c21 (single isomer, unassigned) [Compound 379, 5-Chloro-N-(8-fluoro-6-oxo-1,4,5,6-tetrahydro-2H-pyrano[3,4-c]isoquinolin-1-yl)-N-methyl-6-(trifluoromethyl)nicotinamide]",170
12,"CN(C(=O)c1ccc2c(Cl)n(C(F)F)nc2c1)[C@@H]1COCc2[nH]c(=O)c3cc(F)c(F)cc3c21 [Compound 358, (S)-3-Chloro-N-(8,9-difluoro-6-oxo-1,4,5,6-tetrahydro-2H-pyrano[3,4-c]isoquinolin-1-yl)-2-(difluoromethyl)-N-methyl-2H-indazole-6-carboxamide]",680
13,"CN(C(=O)c1ccc(-c2ccccc2F)cc1)[C@@H]1COCc2[nH]c(=O)c3cc(F)c(F)cc3c21 [Compound 285, (S)-N-(8,9-Difluoro-6-oxo-1,4,5,6-tetrahydro-2H-pyrano[3,4-c]isoquinolin-1-yl)-2′-fluoro-N-methyl-[1,1′-biphenyl]-4-carboxamide]",19700
14,"CN([C@@H]1COCc2[nH]c(=O)c3cc(F)c(F)cc3c21)S(=O)(=O)c1cccc(C#N)c1 [Compound 145, (S)-3-Cyano-N-(8,9-difluoro-6-oxo-1,4,5,6-tetrahydro-2H-pyrano[3,4-c]isoquinolin-1-yl)-N-methylbenzenesulfonamide]",5500
15,"CN(C(=O)c1cc2ccccn2n1)[C@@H]1COCc2[nH]c(=O)c3cc(F)c(F)cc3c21 [Compound 64, (S)-N-(8,9-Difluoro-6-oxo-1,4,5,6-tetrahydro-2H-pyrano[3,4-c]isoquinolin-1-yl)-N-methylpyrazolo[1,5-a]pyridine-2-carboxamide]",630
16,"O=C(N[C@@H]1COCc2[nH]c(=O)c3cc(F)c(F)cc3c21)c1ccc(C(F)(F)F)c(F)c1 [Compound 158, (S)-N-(8,9-Difluoro-6-oxo-1,4,5,6-tetrahydro-2H-pyrano[3,4-c]isoquinolin-1-yl)-3-fluoro-4-(trifluoromethyl)benzamide]",580
17,"CN(C(=O)[C@](C)(O)c1ccccc1)[C@@H]1COCc2[nH]c(=O)c3cc(F)c(F)cc3c21 [Compound 94, (R)-N-((S)-8,9-Difluoro-6-oxo-1,4,5,6-tetrahydro-2H-pyrano[3,4-c]isoquinolin-1-yl)-2-hydroxy-N-methyl-2-phenylpropanamide]",3200
18,"CN(C(=O)c1cc2cncc(Br)c2o1)[C@@H]1COCc2[nH]c(=O)c3cc(F)c(F)cc3c21 [Compound 356, (S)-7-Bromo-N-(8,9-difluoro-6-oxo-1,4,5,6-tetrahydro-2H-pyrano[3,4-c]isoquinolin-1-yl)-N-methylfuro[3,2-c]pyridine-2-carboxamide]",1500
